Test system: Hedgehog pathway activation (GLi-luciferase reporter) in Shh Light II reporter cells
Test: Hedgehog pathway activation on Shh Light II reporter cells measured by luciferase activity
Assay type: cell-based
Settings: Mus musculus, Shh Light II, hShh activation, read-out: Shh (IC50, inhibition of Hedgehog pathway activation)
Description: Hedgehog conditioned media was obtained by transfecting 293H cells with the full length gene encoding human Sonic Hedgehog (hShh) inserted into the pCMV6 expression vector, which contains a neomycin selectable marker and expresses the protein of interest with a C-terminal FLAG affinity tag. After selection in G418 containing media, conditioned media from Hedgehog expressing clones were tested for the ability to activate the hedgehog-responsive GLi-luciferase reporter in the Shh Light II cell line obtained by license from John Hopkins University (Taipale J, et al. Effects of oncogenic mutations in Smoothened and Patched can be reversed by cyclopamine. Nature 406: 1005-1009, 2000).
A test compound library was screened against hShh and 500 nM SAG (a direct agonist of the Smoothened receptor) activated 10T1/2/Smo#3 cells and Shh Light II reporter cells for the ability to block Hedgehog pathway activation. Concurrently, cell viability was measured by utilizing Celltiter-Blue® (Promega, Madison Wis.) viability assay. Active compounds were defined as those that inhibited Hedgehog signaling by greater than 50% with no concurrent loss in cell viability.
Their inhibitory activity against Hedgehog pathway activation on 10T1/2/Smo#3 cells as measured by ALP activity and Shh Light II reporter cells as measured by luciferase activity is shown in Table 1 below. In Table 1, +++ stands for an IC50 value that is less than 0.3 μM, ++ between 0.3 and 3 μM, + between 3 and 30 μM.
Additional data for compounds of the invention is shown below in Table 2. Their inhibitory activities against Hedgehog pathway activation are shown as IC50 values in μM on 10T1/2/Smo#3 cells as measured by ALP activity, or on Shh Light II reporter cells as measured by luciferase activity (hShh activation).

Row | SMILES | IC50
1 | CC(C)(C)C(=O)Nc1cc(-c2cn3nc(N4CCC(N)CC4)ccc3n2)ccc1C(F)(F)F [Example 332, N-(5-(6-(4-aminopiperidin-1-yl)imidazo[1,2-b]pyridazin-2-yl)-2-(trifluoromethyl)phenyl)pivalamide] | 698 nM
2 | CC(C)(C)C(=O)Nc1cc(-c2cn3nc(NC4CCCCC4O)ccc3n2)ccc1C(F)(F)F (centres unmarked) [Example 333, N-(5-(6-(2-hydroxycyclohexylamino)imidazo[1,2-b]pyridazin-2-yl)-2-(trifluoromethyl)phenyl)pivalamide] | 893 nM
3 | CC(C)(C)C(=O)Nc1cc(-c2cn3nc(-c4cccnc4N4CCOCC4)ccc3n2)ccc1C(F)(F)F [Example 335, N-(5-(6-(2-morpholinopyridin-3-yl)imidazo[1,2-b]pyridazin-2-yl)-2-(trifluoromethyl)phenyl)pivalamide] | 1610 nM
4 | CC(C)(C)C(=O)Nc1cc(-c2cn3nc(N4CCCC(O)C4)ccc3n2)ccc1C(F)(F)F (centres unmarked) [Example 336, N-(5-(6-(3-hydroxypiperidin-1-yl)imidazo[1,2-b]pyridazin-2-yl)-2-(trifluoromethyl)phenyl)pivalamide] | 230 nM
5 | Cc1ccc(-c2nc3ccc(-c4ccc(C(F)(F)F)nc4)nn3c2C)cc1NC(=O)C(C)(C)C [Example 339, N-(2-methyl-5-(3-methyl-6-(6-(trifluoromethyl)pyridin-3-yl)imidazo[1,2-b]pyridazin-2-yl)phenyl)pivalamide] | 277 nM
6 | CC(C)(C)C(=O)Nc1cc(-c2cn3nc(N4CCCC4CO)ccc3n2)ccc1C(F)(F)F (centres unmarked) [Example 348, N-(5-(6-(2-(hydroxymethyl)pyrrolidin-1-yl)imidazo[1,2-b]pyridazin-2-yl)-2-(trifluoromethyl)phenyl)pivalamide] | 339 nM
7 | Cc1ccc(-c2cn3nc(-c4ccc(N)nc4)ccc3n2)cc1NC(=O)C(C)(C)C [Example 402, N-(5-(6-(6-aminopyridin-3-yl)imidazo[1,2-b]pyridazin-2-yl)-2-methylphenyl)pivalamide] | 1560 nM
8 | COc1cncc(-c2ccc3nc(-c4ccc(C)c(NC(=O)C(C)(C)C)c4)cn3n2)c1 [Example 403, N-(5-(6-(5-methoxypyridin-3-yl)imidazo[1,2-b]pyridazin-2-yl)-2-methylphenyl)pivalamide] | 474 nM

The next lines start with the values.

Row | IC50 | SMILES
9 | 398 nM | CCc1ccc(-c2cn3nc(-c4ccc(C(F)(F)F)nc4)ccc3n2)cc1NC(=O)C(C)(C)C [Example 338, N-(2-ethyl-5-(6-(6-(trifluoromethyl)pyridin-3-yl)imidazo[1,2-b]pyridazin-2-yl)phenyl)pivalamide]
10 | 409 nM | Cc1ccnc(F)c1-c1ccc2nc(-c3ccc(C(F)(F)F)c(NC(=O)C(C)(C)C)c3)cn2n1 [Example 342, N-(5-(6-(2-fluoro-4-methylpyridin-3-yl)imidazo[1,2-b]pyridazin-2-yl)-2-(trifluoromethyl)phenyl)pivalamide]
11 | 340 nM | CC(C)(C)C(=O)Nc1cc(-c2cn3nc(-c4cncc(N)c4)ccc3n2)ccc1C(F)(F)F [Example 343, N-(5-(6-(5-aminopyridin-3-yl)imidazo[1,2-b]pyridazin-2-yl)-2-(trifluoromethyl)phenyl)pivalamide]
12 | 8740 nM | CC(C)(C)C(=O)Nc1cc(-c2cn3nc(-c4cccnc4N)ccc3n2)ccc1C(F)(F)F [Example 344, N-(5-(6-(2-aminopyridin-3-yl)imidazo[1,2-b]pyridazin-2-yl)-2-(trifluoromethyl)phenyl)pivalamide]
13 | 5490 nM | CC(C)(C)C(=O)Nc1cc(-c2cn3nc(-c4ccccc4N)ccc3n2)ccc1C(F)(F)F [Example 345, N-(5-(6-(2-aminophenyl)imidazo[1,2-b]pyridazin-2-yl)-2-(trifluoromethyl)phenyl)pivalamide]
14 | 681 nM | Cc1ccc(-c2cn3nc(-c4cccc(O)c4C(F)(F)F)ccc3n2)cc1NC(=O)C(C)(C)C [Example 398, N-(5-(6-(3-hydroxy-2-(trifluoromethyl)phenyl)imidazo[1,2-b]pyridazin-2-yl)-2-methylphenyl)pivalamide]
